Laboratory results taken from patent US20030219494A1, “Compositions and methods of using them” (priority 2002, published 2003).
Like-named read-outs stand apart in the source and are kept apart here.

Key:
[1] = tested on: tactile allodynia in STZ-diabetic DA rats; test: baseline von Frey paw withdrawal thresholds in STZ-diabetic rats given dietary L-arginine; type: in vivo, rat
Text: Filaments were calibrated daily before undertaking antinociceptive testing.

[2] = tested on: mechanical allodynia in STZ-diabetic DA rats; test: von Frey antinociception (relief of mechanical allodynia) after single s.c. opioid in STZ-diabetic DA rats, standard chow or dietary L-arginine; settings: for ED50: Rattus norvegicus, sc; for peak antinociception / time of decline of antinociception to baseline levels (<20% MPE) / time to peak antinociception: 3 wks post-STZ
Protocol: Deep and stable anaesthesia was induced with a mixture of ketamine (100 mg/kg, i.p.) and xylazine (16 mg/kg, i.p.) to facilitate insertion of a polyethylene cannula (previously filled with 0.1 ml of sterile saline) into the right common jugular vein. Jugular vein cannulae were tested for correct placement by the withdrawal of a small amount of blood. Diabetes was induced following an acute i.v. injection of streptozotocin (STZ) (85 mg/kg) in 0.1 M citrate buffer (pH 4.5) into the jugular vein.
Naïve non-diabetic rats (n=36) were used in the control experiments. Following STZ administration, benzylpenicillin (60 mg, s.c.) was administered to prevent infection and rats were monitored closely during surgical recovery. Rats were then housed singly or in pairs for period of 3 wks to 38 wks, depending upon the study cohort to which they belonged.
(§1) Multiple aliquots of these stock solutions were stored at −20° C. until required. […] Whilst under light anaesthesia with CO2/O2 (50:50%), rats received a single s.c. injection (100 μL) of one opioid or vehicle (saline) into the dorsal region of the base of the neck, using a 250 μL Hamilton syringe.
(§2) Mechanical allodynia, the distinguishing feature of diabetic neuropathic pain, was quantified using von Frey filaments. Rats were placed in a metabolic cage (20 cm×20 cm×20 cm) with a metal mesh floor and allowed to acclimatise for approximately 10 min. von Frey filaments were used to quantify the lowest mechanical threshold required for a brisk paw withdrawal reflex. The force was applied to the plantar surface of the left hindpaw and held until the filament buckled slightly. The absence of a response after 5 s prompted application of the next filament of increasing force. Filaments available for use included those that produced a buckling weight of 2, 4, 5, 6, 8, 10, 12, 14, 16, and 18 g. Filaments were calibrated daily before undertaking antinociceptive testing. […] Pre-drug (opioid or saline) responses were the mean of three readings taken ≈5 min apart. Assessment of von Frey filament responsiveness was determined at the following times post-opioid (or saline) administration: 15, 30, 45, 60, 90, 120 and 180 min.
(§3) The von Frey scores for individual rats were converted to the Percentage of the Maximum Possible Antinociceptive Effect (% MPE), according to the formula: [formula]
(§4) The mean (±SEM) percentage maximum AUC (% Max AUC) was calculated according to the following formula: [formula]
(§5) ED50 estimation was facilitated by the inclusion of theoretical maximum and minimum % Max AUC values.
This study comprised three groups of STZ-diabetic DA rats. […] Subsequent doses were chosen to facilitate construction of dose-response curves for the alleviation of tactile allodynia. Antinociception was quantified using calibrated von Frey filaments.
At 9 wks post-STZ administration, Group 1 STZ-diabetic rats received a dietary intervention of an L-arginine supplement (1 g per day) incorporated into rat chow, until the end of the 24 wk study period.
At 14 wks post-STZ administration, a dietary intervention comprising L-arginine supplementation (1 g per day in rat chow) was initiated which was continued for another 8 wks.
At 30 wks post-STZ administration, dietary L-arginine supplementation (1 g/day in rat chow) was initiated and continued for 8 wks.

[3] = body weight of control non-diabetic rats given dietary L-arginine; type: in vivo, rat; settings: control non-diabetic rats after 1 wk dietary L-arginine
Text: Importantly, since diabetic rats eat twice as much as naïve control non-diabetic rats, the concentration of L-arginine in rat chow administered to control non-diabetic rats was doubled to maintain consistent L-arginine dosing between the STZ-diabetic rats and the control non-diabetic rats.

[4] = body weight of STZ-diabetic rats given dietary L-arginine; type: in vivo, rat
Text: Group 3 STZ-diabetic rats, (n=6, 224.7±2.9 g, mean±SEM) were the same rats used in Example 1 above. […] At 30 wks post-STZ administration, dietary L-arginine supplementation (1 g/day in rat chow) was initiated and continued for 8 wks.

[5] = tested on: naïve control non-diabetic DA rats; test: von Frey antinociception after single s.c. opioid in control non-diabetic DA rats; type: in vivo, rat; settings: for ED50: s.c.
Protocol: as §1, §2, §3, §4, §5
Weight-matched naïve control DA rats received dietary L-arginine supplementation (1 g per day in rat chow) for at least 1 wk prior to acute opioid administration and concomitant antinociceptive testing. Importantly, since diabetic rats eat twice as much as naïve control non-diabetic rats, the concentration of L-arginine in rat chow administered to control non-diabetic rats was doubled to maintain consistent L-arginine dosing between the STZ-diabetic rats and the control non-diabetic rats.

naïve Dark Agouti rats = settings: s.c., tail flick test; cited from earlier work
[6] = tested on: rats with a chronic constriction injury (CCI) of the sciatic nerve; settings: relief of mechanical allodynia; cited from earlier work
[7] = Group 1, 12 wks post-STZ (3 wks L-arginine)
[8] = Group 2, 18 wks post-STZ (4 wks L-arginine)
[9] = Group 2, 22 wks post-STZ (8 wks L-arginine)
[10] = Group 3, 34 wks post-STZ (4 wks L-arginine)
[11] = Group 3, 38 wks post-STZ (8 wks L-arginine)
[12] = 3 wks supplementation, 9 to 12 wks post-STZ
[13] = Rattus norvegicus, sc, control naïve non-diabetic rats, standard chow, von Frey % Max AUC, read-out: Mean (±SEM) ED50
[14] = 24 wks post-STZ / full 24 wk study period, standard chow
[15] = 504 h, read-out: Mean (±SEM) ED50, STZ-diabetic rats 3 wks post-STZ, standard chow, s.c.
[16] = 1512 h, STZ-diabetic rats at 3 and 9 wks post-STZ, standard chow
[17] = 1512 h, read-out: Mean (±SEM) ED50, STZ-diabetic rats 9 wks post-STZ, standard chow (before L-arginine), s.c.
[18] = STZ-diabetic rats 12 wks post-STZ after 3 wks dietary L-arginine (1 g/day), s.c.
[19] = STZ-diabetic rats 24 wks post-STZ after 15 wks dietary L-arginine (1 g/day), s.c.

SMILES: N=C(N)NCCC[C@H](N)C(=O)O [L-arginine]
- paw withdrawal threshold ([1]; Group 1, 9 wks post-STZ (start of dietary L-arginine 1 g/day)): 6.8 (±0.3) g
- paw withdrawal threshold [1, 7]: 4.3 (±0.1) g
- paw withdrawal threshold ([1]; Group 1, 24 wks post-STZ (15 wks L-arginine)): 5.2 (±0.1) g
- paw withdrawal threshold [1, 8]: 4.9 (±0.2) g
- paw withdrawal threshold [1, 9]: 6.1 (±0.4) g
- paw withdrawal threshold [1, 10]: 3.9 (±0.2) g
- paw withdrawal threshold [1, 11]: 5.0 (±0.2) g
- effect of dietary L-arginine on morphine's antinociceptive efficacy [2, 12]: prevented the abolition
- effect of dietary L-arginine on oxycodone potency [2, 12]: prevented the 2-fold decrease
- effect of dietary L-arginine on antinociceptive potency of morphine ([2]; 4 wks supplementation (30 to 34 wks post-STZ), Group 3): partially restored
- effect of dietary L-arginine on antinociceptive efficacy of s.c. morphine (6.1 mg/kg) ([2]; 4 wks supplementation, Group 2, 18 wks post-STZ): restored
- effect of late-initiated dietary L-arginine on morphine efficacy ([2]; started 14 and 30 wks post-STZ (groups 2 and 3), after as little as 4 wks): restored morphine efficacy
- mean (±SEM) body weight [3]: 236.3 g
- mean (±SEM) body weight [4, 7]: 229.0 (±6.0) g
- mean (±SEM) body weight ([4]; Group 1, 16 wks post-STZ (7 wks L-arginine)): 218.0 (±7.2) g
- mean (±SEM) body weight ([4]; Group 1, 20 wks post-STZ (11 wks L-arginine), n=6): 253.4 (±9.9) g
- mean (±SEM) body weight ([4]; Group 1, 24 wks post-STZ (15 wks L-arginine), n=25): 234.5 (±5.1) g
- mean (±SEM) body weight [4, 8]: 203.2 (±6.4) g
- mean (±SEM) body weight [4, 9]: 220.9 (±11.6) g
- mean (±SEM) body weight [4, 10]: 207.8 (±10.7) g
- mean (±SEM) body weight [4, 11]: 221.7 (±11.7) g

SMILES: CN1CC[C@]23c4c5ccc(O)c4O[C@H]2[C@@H](O)C=C[C@H]3[C@H]1C5 [morphine]
- ED50 [5, 13]: 2.4 mg/kg
- ED50 ([5]; control non-diabetic rats, dietary L-arginine 1 g/day for 1 wk): does not differ significantly
- antinociceptive efficacy [2, 14]: remained completely abolished
- ED50 [2, 15]: 6.1 mg/kg
- ED50 [2, 16]: 6.1 ± 0.3 mg/kg
- ED50 [2, 17]: 6.1 mg/kg
- ED50 [2, 18]: 7 ± 0.5 mg/kg
- ED50 [2, 19]: 5 ± 0.9 mg/kg
- Mean (±SEM) ED50 ([2]; STZ-diabetic rats 12 wks post-STZ, standard chow, s.c.): No efficacy
- Mean (±SEM) ED50 ([2]; STZ-diabetic rats 24 wks post-STZ, standard chow, s.c.): No efficacy
- peak antinociception ([2]; morphine 4 mg/kg s.c.): 70 % MPE
- time of decline of antinociception to baseline levels (<20% MPE) ([2]; morphine 4 mg/kg s.c.): ≤ 90 min
- time to peak antinociception ([2]; morphine 4 mg/kg s.c.): ≤ 15 min
- antinociceptive efficacy ([2]; morphine 6.1 mg/kg s.c., 14 wks post-STZ, before L-arginine (Group 2)): completely abolished
- efficacy for the relief of mechanical allodynia ([2]; morphine 6.1 mg/kg s.c., 16 wks post-STZ, 7 wks dietary L-arginine): maintained
- antinociceptive efficacy ([2]; morphine 14.2 mg/kg s.c., 12 wks post-STZ): remained completely abolished
- antinociception ([2]; morphine 18 mg/kg s.c., 12 wks post-STZ): absence of antinociception
- behavioural side effects ([2]; morphine 18 mg/kg s.c., STZ-diabetic rats 12 wks post-STZ (myoclonus, biting of cage)): mild neuro-excitatory behaviours
- antinociceptive efficacy ([2]; morphine s.c., 24 wks post-STZ, 15 wks dietary L-arginine): maintained
- potency for relief of mechanical allodynia as percent of that in control non-diabetic rats ([2]; morphine, STZ-diabetic rats, 11 wks dietary L-arginine (20 wks post-STZ)): ≈ 90%

SMILES: COc1ccc2c3c1O[C@H]1C(=O)CC[C@@]4(O)[C@@H](C2)N(C)CC[C@]314 [oxycodone]
- potency relative to morphine (naïve Dark Agouti rats): ≈ 3 times
- ED50 ([5]; Rattus norvegicus, sc, 168 h, control non-diabetic rats, dietary L-arginine 1 g/day for 1 wk, read-out: ED50): 1 ± 0.1 mg/kg
- ED50 [5, 13]: 1.2 mg/kg
- potency relative to morphine ([5]; printed: at 3 and 9 wks post-STZ, s.c. route, naïve non-diabetic rats): ≈ 2 fold
- potency relative to morphine [6]: ≈ 4 times
- antinociceptive efficacy/potency ([2]; 12 wks post-STZ, standard chow, s.c.): maintained
- antinociceptive efficacy [2, 14]: maintained
- ED50 [2, 15]: 2 mg/kg
- ED50 [2, 16]: 2.1 ± 0.4 mg/kg
- ED50 [2, 17]: 2.1 mg/kg
- ED50 ([2]; 2016 h, read-out: Mean (±SEM) ED50, STZ-diabetic rats 12 wks post-STZ, standard chow, s.c.): 4.1 mg/kg
- ED50 ([2]; 4032 h, read-out: Mean (±SEM) ED50, STZ-diabetic rats 24 wks post-STZ, standard chow, s.c.): 4.2 mg/kg
- ED50 [2, 18]: 2 ± 0.3 mg/kg
- ED50 [2, 19]: 1.8 ± 0.3 mg/kg
- potency relative to morphine for alleviation of mechanical allodynia ([2]; STZ-diabetic rats 3 wks post-STZ, s.c.): ≈ 3 times
- decrease in potency between 9 and 12 wks post-STZ ([2]; STZ-diabetic rats, standard chow): 2 fold
- decrease in antinociceptive potency relative to control non-diabetic rats ([2]; at 12 wks post-STZ, unchanged at 24 wks, standard chow): 4 fold
- rightward shift in the dose-response curve versus non-diabetic rats ([2]; by 3 wks post-STZ): ≈ 1.7 fold
- decrease in potency relative to weight-matched control non-diabetic rats ([2]; by 9 wks post-STZ): ≈ 2 fold
- peak antinociception ([2]; oxycodone 1.7 mg/kg s.c.): 90 % MPE
- time of decline of antinociception to baseline levels (<20% MPE) ([2]; oxycodone 1.7 mg/kg s.c.): ≤ 120 min
- time to peak antinociception ([2]; oxycodone 1.7 mg/kg s.c.): ≤ 30 min
- % MPE AUC ([2]; oxycodone 2.0 mg/kg s.c., 9 wks post-STZ, standard chow): 108.7±13.2 % MPE-h
- % MPE AUC ([2]; oxycodone 2.0 mg/kg s.c., 12 wks post-STZ, standard chow): 37.0±1.1 % MPE-h
- % MPE AUC (±SEM) ([2]; oxycodone 2.0 mg/kg s.c., 20 wks post-STZ, 11 wks dietary L-arginine (Group 1)): 160.3±7.6 % MPE-h
- % MPE AUC ([2]; oxycodone 2.0 mg/kg s.c., 22 wks post-STZ, 8 wks dietary L-arginine (Group 2)): 139.4±9.4 MPE-h
- % MPE AUC ([2]; oxycodone 2.0 mg/kg s.c., 38 wks post-STZ, 8 wks dietary L-arginine (Group 3)): 147.0±1.9 % MPE-h
- % MPE AUC ([2]; oxycodone 4.0 mg/kg s.c., 24 wks post-STZ, standard chow): 144.0±13.7 MPE-h
- potency for relief of mechanical allodynia as percent of that in diabetic rats on standard chow at 9 wks post-STZ ([2]; oxycodone, 11 wks dietary L-arginine (20 wks post-STZ)): ≈ 150%
